# Legend:
# [1] = human, in vivo, po
# Description: Following screening, eligible healthy volunteer subjects were admitted to a single clinical study site and were randomized to 1 of 2 treatment sequences. […] In each period, a standardized breakfast was provided to subjects prior to administration of study drug (to compare the PK profiles in the clinically relevant fed state) and plasma samples were collected over a 48-hour period after dosing for evaluation of PK. Dosing between the 2 periods was separated by a minimum of 7 days. Subjects completed the study upon completion of the 48-hour post-dose assessments following dosing period 2.
# All capsules were identical in size, shape, and external color.
# NASH mice = assay: Streptozotocin/high fat diet NASH mouse model: Sirius-red fibrosis area and NAFLD Activity Score; type: in vivo; settings: n = 8
# Description: Non-alcoholic steatohepatitis (NASH) is characterized by lobular inflammation, hepatocyte ballooning and degeneration progressing to liver fibrosis. […] In addition, nine non-NASH mice were fed with a normal diet and monitored.
# While LYT-100 hepatocyte ballooning was similar to Vehicle, scores were lower for lobular inflammation and steatosis. (Table 6 and 7).
# L929 cells [2] = assay: TGF-induced collagen synthesis in L929 cells, 6-wells (SIRCOL); type: cell-based; settings: 72 hrs, FIG. 4B
# Method: 100,000 L929 cells were plated in complete DMEN and incubated until confluency for 3 days. Medium was removed and complete DMEM containg Prolin ([…]) and ascorbic acid (10 μM) was added. […] Cells were further incubated for 72 hrs. Supernatant was removed, cells were washed with cold PBS, 1 ml SIRCOL reagent was added onto the cells and cells were scraped off, samples were shaken for 5 h.at RT, centrifuged at 10.000 rpm for 5 min, supernatant was removed, pellet was dissolved in 0.5 M acetic acid to remove unbound dye, and re-centrifuged at 10.000 rpm for 5 min, supernatant was removed and final pelet was dissolved in 1 ml 0.5M NaOH, shaken at RT for 5 h, 100 μl of resulted solution was placed in 96-well and O.D was determined at 600.
# [3] = Phase 1 food effect study Part 2 (Cohort 5), single 500 mg dose fed vs fasted; type: in vivo, human; settings: LYT-100 @500 mg single dose
# Method: The comparison will be based on Day 1, Day 2 and Day 3 PK plasma samples after the first dose of study drug on Day 1 under fast and fed conditions of Part 2.
# Subjects will be admitted to the CRU on Day-1 and will fast overnight for at least 10 h.
# [4] = rat, in vivo
# Method: The original male TK animals received 1000 mg/kg of SD-559 on Day 1 and continued on study. The protocol was amended to add additional TK male animals in Group 6 for Day 1 collection of TK samples at 875 mg/kg.
# Blood samples were collected from 3 subsets of 3 animals/sex on Day 1 and Day 28 at pre-dose, 0.25, 0.5, 1, 2, 4. 8 and 24 hours (hr) post-dose for groups 2 to 6 and from one subset of 3 animals/sex at 0.25 hr post-dose for the vehicle group (group 1). […] Non-compartmental analysis (NCA) of plasma concentration data was conducted using Phoenix® WinNonlin®, version 8.0.
# LPS-induced plasma TNFα = assay: LPS-induced plasma TNF-α after oral pretreatment in rats; type: in vivo, Sprague-Dawley rats; settings: Mean ± St. Dev., n = 6-8; for Plasma TNFα concentrations 4 hours after LPS: vehicle 693 ± 553; for Plasma TNFα concentrations 1.5 hours after LPS: vehicle 75389 ± 29107
# Method: (§1) LPS was diluted with sterile saline to […] and sonicated at 40° C. for 20 minutes to generate a stock solution and stored at 4° C. Each day of use, the stock solution was further diluted to 0.03 mg/mL in sterile saline.
# (§2) Male Sprague-Dawley rats with indwelling femoral and jugular venous catheters (n=6-8 per dose and test article group) were used in this study. […] Sixty minutes after the oral dose, 0.03 mg/kg of LPS in 1 mL/kg saline was infused into the jugular vein.
# (§3) Blood samples were collected from the femoral vein into heparin-coated syringes 15 minutes prior to the LPS infusion (45 minutes after oral doses of test article), 90 minutes after the LPS infusion and 4 hours after the LPS infusion. Plasma was prepared by centrifugation of the blood samples at 14,000 rpm for 10 minutes. Plasma samples were stored at −70 ° C. until analysis.
# [5] = In vitro comparative mass balance and metabolite studies in liver microsomes; type: in vitro ADME, human, rat, dog, mouse, monkey
# Description: Both LYT-100 and pirfenidone share a common major metabolite.
# L929 cells [6] = assay: TGF-induced collagen synthesis in L929 cells, 96-well plate format (SIRCOL); type: cell-based; settings: 72 hrs, FIG. 4C
# Method: Five thousand L929 cells were plated in complete DMEN and incubated until confluency for 3 days. Medium was removed and complete DMEM containg Prolin (20 μg/ml) and ascorbic acid (10 μM) was added. […] Cells were further incubated for 72 hrs. Supernatant was removed, 0.5% glutaraldehyde was added for 30 min at RT, removed, washed 3× with ddwater, 0.5 M acetic acid was added for 30 min at RT, removed, washed with water, air dried and 100 μl SIRCOL dye was added for 5 h at RT. Dye was removed, plate was washed extensively under running water, air dried and 200 μl of 0.5 M NaOH was added, plates were shaken at RT for 1 h, and OD was determined at 600 nm.
# LPS-induced plasma IL-6 = LPS-induced plasma IL-6 after oral pretreatment in rats; type: in vivo, Sprague-Dawley rats; settings: Mean ± St. Dev, n = 6-8; for Plasma IL-6 concentrations 4 hours after LPS: vehicle 13989 ± 6125; for Plasma IL-6 concentrations 1.5 hours after LPS: vehicle 40423 ± 8653
# Method: as §1, §2, §3
# [7] = human, in vivo
# Method: (§5) Up to 5 dosing cohorts are planned in Part 1.
# (§6) Additional cohorts and intermediate doses may be selected in lieu of predefined doses as noted and in accordance with safety and tolerability responses, but doses will not exceed 1000 mg BID or a total daily dose of 2000 mg.
# (§7) A standardised lunch will be served ≥4 h post breakfast and ≥4 h prior to dinner. An evening snack will be served ≥3 h following evening study medication administration. No additional fluids will be allowed during the 1 h pre- and post-doses. On Day 6, subjects will replicate mealtimes as scheduled on Day 1-5.
# (§8) Plasma PK parameters (non-compartmental or compartmental analysis as appropriate) will include, but are not limited to: • Following single dose: Tmax, tlag, Cmax, AUC0-4, AUC0-last, t1/2, AUC0-inf, lambda z, %AUCext, CL/F, Vz/F, Cmax/D, AUC0-last/D, AUC0-inf/D and MRT (D is dose) • After repeated doses: Ctrough, Ctrough/D • Following repeated doses on last day: Tmax, Cmax, Cavg, tlag, t1/2, AUC0-4, AUC0-last; AUC0-inf, lambda z, %AUCext, CLss/F, Vzss/F, MRT, PTF, Rac(AUC), Rac(Cmax), Cmax/D, AUClast/D, AUC0-inf/D and Rae (accumulation ratio).
# L929 cells [8] = assay: TGF-induced soluble collagen synthesis in L929 cells (ELISA); type: cell-based; settings: 500 μM, 72 hrs, FIG. 4D
# Method: (§4) Five thousand L929 cells were plated in complete DMEN and incubated until confluency for 3 days.
# [9] = Phase 1 multiple ascending dose (MAD) study Part 1, healthy volunteers (PK and safety); settings: 100 to 1000 mg BID, 5 days
# Method: as §5, §6, §7, §8
# L929 cells [10] = assay: TGF-induced soluble fibronectin synthesis in L929 cells (ELISA); type: cell-based; settings: 500 μM; FIG. 4E
# Method: as §4
# Fibronectin is another important component of fibrotic lungs as it is induced by TGF-β and functions both as a structural component of extra cellular matrix as well as well as a ligand for integrin receptors. Just like soluble collagen, binding of fibronectin to integrin receptors induces the proliferation of fibroblast and epithelial cells of the lungs.
# [11] = 30 mg/kg oral pretreatment 1 hour prior to LPS injection
# [12] = 100 mg/kg oral pretreatment 1 hour prior to LPS injection
# [13] = 300 mg/kg oral pretreatment 1 hour prior to LPS injection
structure (smiles),measurement,setting,value
"[2H]C([2H])([2H])c1ccc(=O)n(-c2ccccc2)c1 [LYT-100, 5-(methyl-d3)-1-phenylpyridin-2-(1H)-one]",Tolerability of single doses,[1],well tolerated
same,Steatosis score 0: number of animals,"NASH mice; NAS component, score 0 = <5%, LYT-100 30 mg/kg twice daily",4
same,Steatosis score 1: number of animals,"NASH mice; NAS component, score 1 = 5-33%, LYT-100 30 mg/kg twice daily",3
same,Lobular Inflammation score 1: number of animals,"NASH mice; NAS component, score 1 = <2 foci/200x, LYT-100 30 mg/kg twice daily",5
same,Lobular Inflammation score 2: number of animals,"NASH mice; NAS component, score 2 = 2-4 foci/200x, LYT-100 30 mg/kg twice daily",3
same,Steatosis score 2: number of animals,"NASH mice; NAS component, score 2 = >33%-66%, LYT-100 30 mg/kg twice daily",1
same,Hepatocyte ballooning score 2: number of animals,"NASH mice; NAS component, score 2 = Many cells/prominent ballooning, LYT-100 30 mg/kg twice daily",8
same,Fibrosis Area (%) (mean ± SD),"NASH mice; Sirius-red stained liver sections, LYT-100 30 mg/kg orally twice daily from 6-9 weeks of age, p < 0.01 vs Vehicle (1.02 ± 0.20)",0.64 ± 0.31 %
same,Effect on TGF-induced collagen synthesis,L929 cells [2]; 500 μM 1 hour prior to TGF-β 5 ng/ml,inhibits
same,Effect on collagen synthesis in the absence of added TGF-β,L929 cells [2]; 500 μM,significantly inhibits
same,"AUC, % Change Fed vs Fasted",[3],−19%
same,"Cmax, % Change Fed vs Fasted",[3],−23%
same,"Tmax, % Change Fed vs Fasted",[3],+25%
same,Accumulation after multiple dosing for 28 Days,[4],No accumulation
same,Plasma TNFα concentrations 4 hours after LPS,LPS-induced plasma TNFα; [11],274 ± 95 pg/mL
same,Plasma TNFα concentrations 1.5 hours after LPS,LPS-induced plasma TNFα; [11],46382 ± 23254 pg/mL
same,Plasma TNFα concentrations 4 hours after LPS,LPS-induced plasma TNFα; [12],129 ± 65 pg/mL
same,Plasma TNFα concentrations 1.5 hours after LPS,LPS-induced plasma TNFα; [12],6403 ± 4812 pg/mL
same,Plasma TNFα concentrations 4 hours after LPS,LPS-induced plasma TNFα; [13],79 ± 46 pg/mL
same,Plasma TNFα concentrations 1.5 hours after LPS,LPS-induced plasma TNFα; [13],3162 ± 2668 pg/mL
same,Novel metabolites through deuteration,"[5]; human, rat, dog, mouse, and monkey liver microsomes",did not introduce novel
same,Rate of metabolism compared with pirfenidone,[5]; liver microsomes,occurred more slowly
same,Effect on TGF-β-induced total collagen levels,L929 cells [6]; 500 μM 1 h prior to TGF-β 5 ng/ml,inhibited or reduced
same,Effect on total collagen level in the absence of TGF-β induction,L929 cells [6]; 500 μM,signficantly inhibited or reduced
same,Plasma IL-6 concentrations 4 hours after LPS,LPS-induced plasma IL-6; [11],8174 ± 5504 pg/mL
same,Plasma IL-6 concentrations 1.5 hours after LPS,LPS-induced plasma IL-6; [11],18197 ± 6484 pg/mL
same,Plasma IL-6 concentrations 4 hours after LPS,LPS-induced plasma IL-6; [12],4632 ± 5930 pg/mL
same,Plasma IL-6 concentrations 1.5 hours after LPS,LPS-induced plasma IL-6; [12],21642 ± 17174 pg/mL
same,Plasma IL-6 concentrations 4 hours after LPS,LPS-induced plasma IL-6; [13],1550 ± 1414 pg/mL
same,Plasma IL-6 concentrations 1.5 hours after LPS,LPS-induced plasma IL-6; [13],13519 ± 8674 pg/mL
same,Dose dependence of AUC96-108 across all dose Cohorts,[7],linear dose proportionality
same,Dose limiting toxicities,[7],no dose limiting toxicities observed
same,Grading of adverse events,[7],mild and transient
same,AEs considered possibly related to treatment,[7]; 5 days,33
same,"Most common AE, headache: subjects",[7]; 5 days,25%
same,Subjects who experienced adverse events,[7]; 5 days,33 subjects
same,Total adverse events (AEs),[7]; 5 days,72
same,Effect on soluble collagen levels in the absence of TGF-β-induction,L929 cells [8],signficantly reduced
same,Effect on TGF-β-induced soluble collagen levels,L929 cells [8]; TGF-β 5 ng/ml,significantly inhibits
same,Maximally tolerated dose,[9],no maximally tolerated dose was reached
same,"Effect on soluble fibronectin levels, in the absence and presence of TGF-β-induction",L929 cells [10],signficantly reduced

# Source: patent US20230129866A1 (PureTech LYT 100, Inc., priority 2020, published 2023)
